{
  "source": "paper PMC6501587",
  "about": "(The Journal of neuroscience : the official journal of the …, 2009)",
  "key": {"[1]": {"target": "T1, P2X2bR (Rattus norvegicus, UniProt P49653, DEL370-438)", "T1 sequence (P49653 with tags, fused parts or gaps DEL370-438)": "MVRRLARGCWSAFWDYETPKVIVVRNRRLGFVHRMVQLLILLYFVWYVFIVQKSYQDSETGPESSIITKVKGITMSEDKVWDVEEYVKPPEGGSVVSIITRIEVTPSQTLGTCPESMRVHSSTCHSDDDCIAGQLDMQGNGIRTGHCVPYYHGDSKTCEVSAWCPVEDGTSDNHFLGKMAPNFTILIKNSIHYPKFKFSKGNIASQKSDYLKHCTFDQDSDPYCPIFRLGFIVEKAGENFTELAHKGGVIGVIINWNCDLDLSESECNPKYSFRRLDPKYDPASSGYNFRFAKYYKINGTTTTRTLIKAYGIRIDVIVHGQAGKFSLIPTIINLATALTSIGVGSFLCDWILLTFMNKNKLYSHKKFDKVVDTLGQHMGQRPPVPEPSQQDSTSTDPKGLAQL", "format": "cell-based", "settings": "oocytes"}, "[2]": {"test_system": "P2X4/2b chimera", "format": "cell-based, rat", "settings": "oocytes"}, "[3]": {"test_system": "oocytes and HEK293 cells"}, "[4]": {"target": "T2, P2X2aR (Rattus norvegicus, UniProt P49653)", "T2 sequence (P49653 1-472)": "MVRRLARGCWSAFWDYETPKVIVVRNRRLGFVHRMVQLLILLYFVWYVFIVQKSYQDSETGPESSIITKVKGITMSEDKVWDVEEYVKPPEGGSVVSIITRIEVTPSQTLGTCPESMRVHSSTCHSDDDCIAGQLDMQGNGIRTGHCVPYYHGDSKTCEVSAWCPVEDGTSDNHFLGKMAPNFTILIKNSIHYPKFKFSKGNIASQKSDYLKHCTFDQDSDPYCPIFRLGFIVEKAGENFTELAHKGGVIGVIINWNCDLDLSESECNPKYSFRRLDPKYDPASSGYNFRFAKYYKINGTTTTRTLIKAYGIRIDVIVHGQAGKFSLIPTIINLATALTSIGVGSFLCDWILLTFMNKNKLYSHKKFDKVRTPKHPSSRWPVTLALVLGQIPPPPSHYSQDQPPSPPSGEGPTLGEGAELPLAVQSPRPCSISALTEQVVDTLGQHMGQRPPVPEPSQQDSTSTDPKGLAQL", "format": "cell-based"}, "[5]": {"target": "T3, P2X2a-C430S (Rattus norvegicus, UniProt P49653, C430S)", "T3 sequence (P49653 1-472 C430S)": "T2 sequence (P49653 1-472) with C430S", "format": "cell-based", "settings": "HEK293 cells"}, "[6]": {"target": "T3, P2X2a-C430S", "format": "cell-based"}, "[7]": {"target": "T4, P2X2a-C430A (Rattus norvegicus, UniProt P49653, C430A)", "T4 sequence (P49653 1-472 C430A)": "T2 sequence (P49653 1-472) with C430A", "format": "cell-based", "settings": "oocytes"}, "[8]": {"test_system": "P2X4/2a chimera", "format": "cell-based, rat", "settings": "oocytes"}, "[9]": {"target": "T2, P2X2aR", "test": "ATP-evoked currents, whole-cell patch clamp, HEK293 cells expressing P2X2aR", "format": "cell-based"}, "[10]": {"target": "T1, P2X2bR", "format": "cell-based", "settings": "HEK293 cells"}, "[11]": {"target": "T5, P2X4R (Rattus norvegicus, UniProt P51577)", "T5 sequence (P51577 1-388)": "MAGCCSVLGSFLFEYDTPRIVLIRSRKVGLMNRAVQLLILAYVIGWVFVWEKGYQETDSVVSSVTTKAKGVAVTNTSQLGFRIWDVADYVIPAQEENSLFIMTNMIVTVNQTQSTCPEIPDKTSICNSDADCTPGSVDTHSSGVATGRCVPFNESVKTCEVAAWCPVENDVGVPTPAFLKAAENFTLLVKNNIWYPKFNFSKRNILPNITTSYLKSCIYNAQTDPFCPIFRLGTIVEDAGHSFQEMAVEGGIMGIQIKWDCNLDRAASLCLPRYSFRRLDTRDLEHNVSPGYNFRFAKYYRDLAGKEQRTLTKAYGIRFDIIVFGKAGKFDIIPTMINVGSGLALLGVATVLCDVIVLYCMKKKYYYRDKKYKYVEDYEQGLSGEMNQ", "format": "cell-based", "settings": "oocytes"}, "[12]": {"test_system": "P2X4/2a-C430A chimera", "settings": "oocytes; supplemental Fig. 3"}},
  "note": "Positions count from the first letter of the chain named. Entries after “also recorded” stand apart in the source; their conditions may differ. Like-named read-outs stand apart in the source and are kept apart here.",
  "data": [
    {"compound": "OO", "note": "[H2O2, hydrogen peroxide]", "values": [
      {"measurement": "sensitivity to H2O2", "setting": "[1]", "result": "totally resistant"},
      {"measurement": "sensitivity to H2O2", "setting": "[2]", "result": "totally resistant"},
      {"measurement": "effect of concentrations larger than 1 mM on cells", "setting": "[3]", "result": "cell damage and membrane dissolution"},
      {"measurement": "increase of ATP-gated currents", "setting": "[4]; 0.3 mM H2O2, ATP ~EC15, oocytes", "result": "2.8 ± 0.3", "unit": "fold"},
      {"measurement": "sensitivity to H2O2", "setting": "[5]; 1 mM", "result": "completely resistant"},
      {"measurement": "sensitivity to H2O2", "setting": "[6]; oocytes", "result": "totally resistant"},
      {"measurement": "sensitivity to H2O2", "setting": "[7]", "result": "totally resistant"},
      {"measurement": "increase of the currents", "setting": "[8]; 1 mM H2O2", "result": "1.9 ± 0.2", "unit": "fold"},
      {"measurement": "currents remaining increased after washout", "setting": "[8]; 10 min washout after 1 mM H2O2", "result": "0.3 ± 0.1", "unit": "fold"},
      {"measurement": "increase of ATP-evoked currents", "setting": "[9]; 1 mM H2O2, ATP ~EC15", "result": "1.9 ± 0.3", "unit": "fold"},
      {"measurement": "sensitivity to H2O2", "setting": "[10]; 1 mM", "result": "completely resistant"},
      {"measurement": "inhibition of receptor activity", "setting": "[11]; 1 mM H2O2", "result": "43.8 ± 0.1", "unit": "%"}
    ]},
    {"compound": "mercury", "values": [
      {"measurement": "effect on rate of deactivation", "setting": "[1]; mercury", "result": "not significantly affected"},
      {"measurement": "sensitivity to mercury", "setting": "[1]; supplemental Fig. 3", "result": "residual mercury-dependent potentiation"},
      {"measurement": "effect on ATP concentration-response curve", "setting": "[2]; 10 μM mercury", "result": "did not displace"},
      {"measurement": "effect on receptor deactivation", "setting": "[2]; 10 μM mercury", "result": "nor modified receptor deactivation"},
      {"measurement": "effect on receptor deactivation", "setting": "[2]; 10 μM mercury, listed as Mercury", "result": "not significantly affected"},
      {"measurement": "sensitivity to mercury", "setting": "[2]; 10 μM", "result": "mercury resistant; also recorded: insensitivity"},
      {"measurement": "effect on the ATP-gated current", "setting": "[4]; 10 μM metal pre-applied 1 min and co-applied with 30 μM ATP, oocytes", "result": "potentiated"},
      {"measurement": "potentiation of ATP-evoked currents", "setting": "[4]; 10 μM metal, 1 min prior and during ATP (~EC15), oocytes", "result": "12.3 ± 2.6", "unit": "fold"},
      {"measurement": "potentiation of response still present after washout", "setting": "[4]; 20 min after washout of 10 μM metal, oocytes", "result": "35 ± 12", "unit": "%"},
      {"measurement": "reversibility of effect on peak current amplitude", "setting": "[4]; after 10 and 20 min washouts, oocytes", "result": "not completely reversible"},
      {"measurement": "10–90% deactivation time", "setting": "[4]; in the presence of mercury, oocytes", "result": "17.2 ± 2.8", "unit": "s"},
      {"measurement": "decrease in the current amplitude on prolonged washout of the metal", "setting": "[4]; mercury-induced potentiation, wild type receptor", "result": "~70", "unit": "%"},
      {"measurement": "increase of ATP-gated currents", "setting": "[5]; 10 μM metal, ATP ~EC15", "result": "1.9 ± 0.2", "unit": "fold"},
      {"measurement": "potentiation of ATP-evoked currents", "setting": "[6]; 10 μM mercury, ATP ~EC15, oocytes", "result": "2.2 ± 0.9", "unit": "fold"},
      {"measurement": "reversibility of effect", "setting": "[6]; mercury", "result": "easily reversible"},
      {"measurement": "sensitivity to mercury", "setting": "[6]; oocytes, supplemental Fig. 3", "result": "residual mercury-dependent potentiation"},
      {"measurement": "sensitivity to mercury", "setting": "[12]", "result": "insensitivity"},
      {"measurement": "potentiation of ATP-evoked currents", "setting": "[7]; 10 μM mercury, ATP ~EC15", "result": "3.3 ± 0.7", "unit": "fold"},
      {"measurement": "reversibility of effect", "setting": "[7]; mercury", "result": "totally reversible; also recorded: easily reversible"},
      {"measurement": "sensitivity to mercury", "setting": "[7]; supplemental Fig. 3", "result": "residual mercury-dependent potentiation"},
      {"measurement": "effect on maximal ATP response", "setting": "[8]; 10 μM mercury", "result": "without significantly altering"},
      {"measurement": "potentiation of 1 μM ATP-induced current", "setting": "[8]; 10 μM metal, 1 μM ATP", "result": "3.7 ± 0.8", "unit": "fold"},
      {"measurement": "10–90% deactivation time", "setting": "[8]; in the presence of mercury", "result": "104.7 ± 11.5", "unit": "s"},
      {"measurement": "increase of 10–90% deactivation time", "setting": "[8]; in the presence of mercury", "result": 9, "unit": "fold"},
      {"measurement": "sensitivity to mercury", "setting": "[8]", "result": "mercury-sensitive; also recorded: residual mercury-dependent potentiation"},
      {"measurement": "increase of ATP-evoked currents", "setting": "[9]; 10 μM metal, ATP ~EC15", "result": "5.9 ± 1.3", "unit": "fold"},
      {"measurement": "increase of ATP-gated currents", "setting": "[10]; 10 μM metal, ATP ~EC15", "result": "2.5 ± 0.5", "unit": "fold"},
      {"measurement": "effect on ATP-induced currents", "setting": "[11]; 10 μM metal pre-applied 1 min and co-applied with 10 μM ATP", "result": "inhibited"},
      {"measurement": "washout time to attain control currents", "setting": "[11]; after 10 μM metal", "result": "20 to 30", "unit": "min"}
    ]}
  ]
}
